From ChEMBL document CHEMBL1743341, “Cytochrome p450 enzymes mechanism based inhibitors: common sub-structures and reactivity” (Curr Drug Metab, 2005)
Blank lines part the entries; values can stand above or below the compound they belong to.

Tests used:
Cytochrome P450 1B1 = molecular target: T1, Cytochrome P450 1B1 (Homo sapiens, UniProt Q16678); test: Mechanism based inhibition of human cytochrome P450 1B1 measured by 7-ethoxyresorufin O-deethylation (EROD); format: ADME
T1 sequence (Q16678 whole entry): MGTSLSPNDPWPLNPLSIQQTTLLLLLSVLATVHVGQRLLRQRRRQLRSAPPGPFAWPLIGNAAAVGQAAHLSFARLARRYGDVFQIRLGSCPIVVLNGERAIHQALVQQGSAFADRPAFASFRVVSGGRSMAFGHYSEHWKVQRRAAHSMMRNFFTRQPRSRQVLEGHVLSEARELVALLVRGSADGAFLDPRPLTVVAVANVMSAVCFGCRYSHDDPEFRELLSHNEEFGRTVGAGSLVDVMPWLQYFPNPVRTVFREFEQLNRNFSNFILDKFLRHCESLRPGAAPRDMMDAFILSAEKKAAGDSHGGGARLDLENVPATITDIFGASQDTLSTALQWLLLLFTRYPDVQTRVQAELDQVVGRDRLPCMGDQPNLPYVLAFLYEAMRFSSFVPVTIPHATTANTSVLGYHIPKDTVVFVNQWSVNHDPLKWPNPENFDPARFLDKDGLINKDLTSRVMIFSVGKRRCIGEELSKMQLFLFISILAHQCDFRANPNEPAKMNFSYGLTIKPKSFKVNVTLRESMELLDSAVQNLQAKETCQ

Cytochrome P450 1A2 [1] = molecular target: T2, Cytochrome P450 1A2 (Homo sapiens, UniProt P05177); test: Mechanism based inhibition of human cytochrome P450 1A2 measured by 7-ethoxyresorufin O-deethylation (EROD); format: ADME
T2 sequence (P05177 whole entry): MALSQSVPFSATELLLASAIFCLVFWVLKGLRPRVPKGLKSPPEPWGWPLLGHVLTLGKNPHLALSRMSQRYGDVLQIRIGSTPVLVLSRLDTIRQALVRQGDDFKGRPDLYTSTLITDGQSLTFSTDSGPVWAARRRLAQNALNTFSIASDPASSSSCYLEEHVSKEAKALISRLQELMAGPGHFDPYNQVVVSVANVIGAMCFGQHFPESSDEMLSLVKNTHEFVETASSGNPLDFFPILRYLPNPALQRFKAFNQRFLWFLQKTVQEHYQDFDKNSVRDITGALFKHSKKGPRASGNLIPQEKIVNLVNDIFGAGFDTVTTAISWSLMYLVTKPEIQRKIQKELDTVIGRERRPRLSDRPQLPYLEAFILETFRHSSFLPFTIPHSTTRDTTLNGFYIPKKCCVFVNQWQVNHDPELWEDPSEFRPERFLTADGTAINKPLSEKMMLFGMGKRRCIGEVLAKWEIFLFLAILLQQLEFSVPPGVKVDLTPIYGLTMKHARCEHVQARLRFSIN

Cytochrome P450 1A2 [2] = molecular target: T2, Cytochrome P450 1A2; test: (§1) Mechanism based inhibition of human cytochrome P450 1A2 measured by 7-methoxyresorufin O-demethylation (MROD); format: ADME
CYP1A2 = molecular target: T3, CYP1A2 (Homo sapiens, UniProt P05177); test: as §1; format: ADME; conditions: human, probe 7-methoxyresorufin (O-demethylation, MROD)
T3 sequence (P05177 whole entry): T2 sequence (P05177 whole entry)

CYP1A1 [3] = molecular target: CYP1A1 (Homo sapiens, UniProt P04798); test: (§2) Mechanism based inhibition of human cytochrome P450 1A1 measured by 7-ethoxyresorufin O-deethylation (EROD); format: ADME; conditions: human, probe 7-ethoxyresorufin (O-deethylation, EROD)
Cytochrome P450 1A1 [4] = molecular target: T4, Cytochrome P450 1A1 (Homo sapiens, UniProt P04798); test: as §2; format: ADME
T4 sequence (P04798 whole entry): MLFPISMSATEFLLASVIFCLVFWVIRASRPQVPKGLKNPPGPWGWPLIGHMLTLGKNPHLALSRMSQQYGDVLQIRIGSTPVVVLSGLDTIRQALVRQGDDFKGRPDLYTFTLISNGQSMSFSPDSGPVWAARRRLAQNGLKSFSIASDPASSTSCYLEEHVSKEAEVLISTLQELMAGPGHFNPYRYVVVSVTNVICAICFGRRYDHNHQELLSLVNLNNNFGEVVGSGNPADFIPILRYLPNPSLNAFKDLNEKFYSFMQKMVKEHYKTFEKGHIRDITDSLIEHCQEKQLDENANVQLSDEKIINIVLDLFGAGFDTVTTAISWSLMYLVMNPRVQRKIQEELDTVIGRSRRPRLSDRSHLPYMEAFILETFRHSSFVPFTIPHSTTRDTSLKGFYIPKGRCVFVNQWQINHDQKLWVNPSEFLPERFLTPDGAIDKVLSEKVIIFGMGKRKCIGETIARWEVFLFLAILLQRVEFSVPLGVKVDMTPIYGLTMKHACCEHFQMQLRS

Cytochrome P450 1A1 [5] = molecular target: T5, Cytochrome P450 1A1 (Rattus norvegicus, UniProt P00185); test: Mechanism based inhibition of rat cytochrome P450 CYP1A1; format: ADME
T5 sequence (P00185 whole entry): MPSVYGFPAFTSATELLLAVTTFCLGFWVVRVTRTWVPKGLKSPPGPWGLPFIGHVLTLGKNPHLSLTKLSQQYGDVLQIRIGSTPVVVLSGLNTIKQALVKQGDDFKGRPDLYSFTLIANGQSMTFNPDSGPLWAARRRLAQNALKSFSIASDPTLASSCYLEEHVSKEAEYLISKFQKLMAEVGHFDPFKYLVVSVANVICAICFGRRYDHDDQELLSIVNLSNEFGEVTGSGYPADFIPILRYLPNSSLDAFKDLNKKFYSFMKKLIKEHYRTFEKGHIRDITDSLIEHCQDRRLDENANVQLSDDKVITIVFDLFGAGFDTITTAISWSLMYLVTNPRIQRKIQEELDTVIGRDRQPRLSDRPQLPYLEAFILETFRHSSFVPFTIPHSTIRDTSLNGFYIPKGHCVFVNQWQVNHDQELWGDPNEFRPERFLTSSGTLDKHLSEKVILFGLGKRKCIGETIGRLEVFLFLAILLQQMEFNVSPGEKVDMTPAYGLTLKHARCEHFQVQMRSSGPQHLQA

CYP2B1 [6] = molecular target: T6, CYP2B1 (Rattus norvegicus, UniProt P00176); test: (§3) Mechanism based inhibition of rat cytochrome P450 CYP2B1 measured by 7-ethoxycoumarin O-deethylase activity; format: ADME; conditions: rat, probe 7-ethoxycoumarin (O-deethylase activity)
T6 sequence (P00176 whole entry): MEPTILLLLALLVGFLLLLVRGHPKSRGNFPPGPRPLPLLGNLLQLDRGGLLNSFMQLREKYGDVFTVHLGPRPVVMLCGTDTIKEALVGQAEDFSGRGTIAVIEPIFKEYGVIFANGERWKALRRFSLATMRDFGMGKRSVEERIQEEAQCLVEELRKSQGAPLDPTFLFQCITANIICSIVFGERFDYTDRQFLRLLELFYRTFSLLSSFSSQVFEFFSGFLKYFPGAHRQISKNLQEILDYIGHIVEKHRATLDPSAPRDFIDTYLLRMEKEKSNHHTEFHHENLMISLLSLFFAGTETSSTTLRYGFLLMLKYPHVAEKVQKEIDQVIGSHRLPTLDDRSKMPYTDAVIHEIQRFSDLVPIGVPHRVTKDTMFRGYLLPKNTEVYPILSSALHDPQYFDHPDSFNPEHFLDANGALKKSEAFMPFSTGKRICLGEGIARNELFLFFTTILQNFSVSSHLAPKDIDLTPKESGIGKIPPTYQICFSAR

Cytochrome P450 2B1 [7] = molecular target: T7, Cytochrome P450 2B1 (Rattus norvegicus, UniProt P00176); test: as §3; format: ADME
T7 sequence (P00176 whole entry): T6 sequence (P00176 whole entry)

CYP2B1 [8] = molecular target: T6, CYP2B1; test: (§4) Mechanism based inhibition of rat cytochrome P450 CYP2B1; format: ADME; conditions: rat
Cytochrome P450 2B1 [9] = molecular target: T7, Cytochrome P450 2B1; test: as §4; format: ADME
Cytochrome P450 2B4 = molecular target: T8, Cytochrome P450 2B4 (Oryctolagus cuniculus, UniProt P00178); test: (§5) Mechanism based inhibition of rabbit cytochrome P450 CYP2B4; format: ADME
T8 sequence (P00178 whole entry): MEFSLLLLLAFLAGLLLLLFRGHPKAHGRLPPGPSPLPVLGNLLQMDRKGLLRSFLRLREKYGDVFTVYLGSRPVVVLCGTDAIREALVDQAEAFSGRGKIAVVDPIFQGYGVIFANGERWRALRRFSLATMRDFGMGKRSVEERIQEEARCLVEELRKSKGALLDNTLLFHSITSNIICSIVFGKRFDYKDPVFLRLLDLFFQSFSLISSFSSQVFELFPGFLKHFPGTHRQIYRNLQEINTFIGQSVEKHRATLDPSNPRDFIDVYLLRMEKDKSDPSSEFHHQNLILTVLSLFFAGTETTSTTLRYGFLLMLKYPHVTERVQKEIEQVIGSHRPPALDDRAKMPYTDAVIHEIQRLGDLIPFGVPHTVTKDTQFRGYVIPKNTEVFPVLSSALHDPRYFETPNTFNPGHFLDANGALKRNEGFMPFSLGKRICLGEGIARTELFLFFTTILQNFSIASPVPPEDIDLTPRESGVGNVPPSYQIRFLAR

CYP2B4 = molecular target: T9, CYP2B4 (Oryctolagus cuniculus, UniProt P00178); test: as §5; format: ADME; conditions: rabbit
T9 sequence (P00178 whole entry): T8 sequence (P00178 whole entry)

Cytochrome P450 2B10 = Cytochrome P450 2B10 (Mus musculus, UniProt P12791); test: Mechanism based inhibition of mouse cytochrome P450 CYP2B10; format: ADME
CYP1A1 [10] = molecular target: T10, CYP1A1 (Rattus norvegicus, UniProt P00185); test: (§6) Mechanism based inhibition of rat cytochrome P450 CYP1A1 measured by ethoxyresorufin O-deethylation warfarin R-6 and R-8 hydroxylation; format: ADME; conditions: rat
T10 sequence (P00185 whole entry): T5 sequence (P00185 whole entry)

Cytochrome P450 1A1 [11] = molecular target: T5, Cytochrome P450 1A1; test: as §6; format: ADME
Cytochrome P450 2E1 [12] = molecular target: T11, Cytochrome P450 2E1 (Rattus norvegicus, UniProt P05182); test: Mechanism based inhibition of rat cytochrome P450 CYP2E1; format: ADME
Cytochrome P450 2E1 [13] = molecular target: T11, Cytochrome P450 2E1; test: Mechanism based inhibition of rabbit cytochrome P450 CYP2E1 measured by P-nitrophenol (PNP) hydroxylase activity; format: ADME, Oryctolagus cuniculus; conditions: target entry is the homologue from another species

T11 sequence (P05182 whole entry): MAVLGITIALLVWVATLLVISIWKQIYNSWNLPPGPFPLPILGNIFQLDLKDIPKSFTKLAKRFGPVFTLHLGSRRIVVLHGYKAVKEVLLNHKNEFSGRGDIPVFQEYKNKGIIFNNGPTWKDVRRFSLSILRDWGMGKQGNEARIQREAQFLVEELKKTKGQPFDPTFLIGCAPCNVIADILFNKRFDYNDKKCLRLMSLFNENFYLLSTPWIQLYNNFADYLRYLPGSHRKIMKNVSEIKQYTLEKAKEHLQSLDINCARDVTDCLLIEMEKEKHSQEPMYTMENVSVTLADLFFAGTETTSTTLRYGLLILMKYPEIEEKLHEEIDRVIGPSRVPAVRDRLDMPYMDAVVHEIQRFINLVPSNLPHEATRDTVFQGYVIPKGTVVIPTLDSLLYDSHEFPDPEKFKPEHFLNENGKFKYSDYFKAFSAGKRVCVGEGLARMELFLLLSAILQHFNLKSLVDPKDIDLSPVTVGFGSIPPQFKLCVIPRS
Cytochrome P450 2B10, sequence (P12791 whole entry): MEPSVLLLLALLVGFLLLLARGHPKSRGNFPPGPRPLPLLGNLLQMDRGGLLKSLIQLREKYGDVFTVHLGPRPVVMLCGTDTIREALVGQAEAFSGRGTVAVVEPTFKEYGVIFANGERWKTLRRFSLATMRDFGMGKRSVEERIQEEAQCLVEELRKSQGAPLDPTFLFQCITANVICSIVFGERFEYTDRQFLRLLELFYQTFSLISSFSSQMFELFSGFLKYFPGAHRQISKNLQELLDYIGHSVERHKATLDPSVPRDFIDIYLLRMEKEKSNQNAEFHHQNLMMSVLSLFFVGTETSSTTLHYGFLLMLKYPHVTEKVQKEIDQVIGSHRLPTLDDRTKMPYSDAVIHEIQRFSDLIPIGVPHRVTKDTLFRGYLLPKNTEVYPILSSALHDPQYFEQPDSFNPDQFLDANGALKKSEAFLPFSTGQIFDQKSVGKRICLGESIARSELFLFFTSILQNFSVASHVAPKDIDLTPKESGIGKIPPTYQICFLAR

- kinact (CYP2B1 [6]): 0.0138 s⁻¹
- Ki (Cytochrome P450 2B1 [7]): 80 nM
Structure (SMILES): C#Cc1ccc2ccccc2c1
- mechanism based inhibition (Cytochrome P450 1B1): Cytochrome P450 mechanistic inhibitor: PMID 9760279
- mechanism based inhibition (Cytochrome P450 1A2 [1]): Cytochrome P450 mechanistic inhibitor: PMID 9760279
- mechanism based inhibition (Cytochrome P450 1A1 [4]): Cytochrome P450 mechanistic inhibitor: PMID 9760279

- kinact (CYP1A1 [10]): 0.00867 s⁻¹
- Ki (Cytochrome P450 1A1 [11]): 2700 nM
Structure (SMILES): O=C(NCCc1ccc([N+](=O)[O-])cc1)C(Cl)Cl

More lines, now with the values behind:

Structure (SMILES): CC#Cc1ccc(-c2ccccc2)cc1
- mechanism based inhibition (Cytochrome P450 1B1): Cytochrome P450 mechanistic inhibitor: PMID 9760279
- mechanism based inhibition (Cytochrome P450 1A2 [1]): Cytochrome P450 mechanistic inhibitor: PMID 9760279
- Ki (Cytochrome P450 1A2 [2]): 13 nM
- kinact (CYP1A2): 0.00167 s⁻¹
- kinact (CYP1A1 [3]): 0.00667 s⁻¹
- Ki (Cytochrome P450 1A1 [4]): 220 nM
- mechanism based inhibition (Cytochrome P450 1A1 [4]): Cytochrome P450 mechanistic inhibitor: PMID 9760279
- mechanism based inhibition (Cytochrome P450 1A1 [5]): Cytochrome P450 mechanistic inhibitor: PMID 9074808

Structure (SMILES): Cn1c2ccccc2c2ccccc21
- kinact (CYP2B1 [8]): 0.0233 s⁻¹
- Ki (Cytochrome P450 2B1 [9]): 5200 nM
- Ki (Cytochrome P450 2B4): 23000 nM
- kinact (CYP2B4): 0.0035 s⁻¹

Structure (SMILES): Cc1c(N)c(C)c([N+](=O)[O-])c(C(C)(C)C)c1[N+](=O)[O-]
- mechanism based inhibition (Cytochrome P450 2B10): Cytochrome P450 mechanistic inhibitor: PMID 9172959

Structure (SMILES): CC(C)(C)N=C=S
- mechanism based inhibition (Cytochrome P450 2E1 [12]): Cytochrome P450 mechanistic inhibitor: PMID 9778311
- mechanism based inhibition (Cytochrome P450 2E1 [13]): Cytochrome P450 mechanistic inhibitor: PMID 9778311
